From PubChem BioAssay (NCI)
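Cells were grown in 96-well plates and exposed to each compound for 48 hours at five concentrations; endpoints were interpolated linearly between bracketing concentrations, or set to the highest concentration if not reached. GI50 is the concentration that inhibits growth by half. At the TGI there is no net growth.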

Assays:
Test in all cases: DTP human tumour cell line panel, 48 h
[1] = system: SNB-75 CNS
[2] = system: UACC-257 melanoma
[3] = system: RPMI-8226 leukemia
[4] = system: NCI-H226 lung
[5] = system: SK-OV-3 ovarian
[6] = system: LOX IMVI melanoma
[7] = system: OVCAR-4 ovarian
[8] = system: HCT-15 colon
[9] = system: SK-MEL-2 melanoma

Row | SMILES | TGI [1] [µM] | TGI [2] [µM] | TGI [3] [µM] | TGI [4] [µM] | TGI [5] [µM] | TGI [6] [µM] | TGI [7] [µM] | TGI [8] [µM] | TGI [9] [µM] | GI50 [1] [µM] | GI50 [2] [µM] | GI50 [4] [µM] | GI50 [5] [µM] | GI50 [8] [µM] | GI50 [9] [µM]
1 | N#CCc1nc2c(s1)C(=O)c1ccccc1C2=O | 49.3 | 28.5 | 46.6 | 37.8 | > 100 | 28.1 | 31.1 | 29.9 | 35.6 | – | – | – | – | – | –
2 | C/C(=N\N=C(N)N)c1sc(-c2nc(C)c(/C(C)=N/N=C(N)N)s2)nc1C | > 100 | > 100 | > 100 | > 100 | > 100 | > 58.3 | > 100 | > 66.9 | > 100 | – | – | – | – | – | –
3 | NC(=O)Cn1c(=O)[nH]c(=O)c2[nH]cnc21 | > 100 | > 100 | – | > 100 | > 100 | > 100 | – | > 100 | > 100 | – | – | – | – | – | –
4 | CC1=C[C@H]2C[C@@]3(C)O[C@@H]([C@]4(C)CC[C@H]([C@@H](C)C(=O)O)OO4)CC3C(C)(C)[C@H]2CC1 (stereo not given in full) | 2.35 | 3.17 | – | 3.82 | – | 0.296 | 2.9 | – | 3.21 | – | – | – | – | – | –
5 | COC(=N)/C(=C1\OC(N)=C(c2ccc(Cl)cc2)C1=O)c1ccc(Cl)cc1 | > 100 | > 100 | > 100 | > 100 | > 100 | > 100 | > 100 | > 100 | > 100 | – | – | – | – | – | –
6 | O=C1CCCC2COc3ccc(O)c1c32 (stereo not given) | > 100 | > 100 | > 100 | > 100 | > 100 | – | > 100 | > 100 | > 100 | – | – | – | – | – | –
7 | Cc1ccc(C)c(NC(=O)CCc2n[nH]c(=S)o2)c1 | > 100 | > 100 | – | > 100 | – | > 100 | > 100 | > 100 | – | – | – | – | – | – | –
8 | O=C1CCCc2c(O)ccc(O)c21 | > 100 | > 100 | > 100 | > 100 | > 100 | > 100 | > 100 | > 100 | > 100 | – | – | – | – | – | –
9 | C[P+](C)(CC(F)(F)F)c1ccccc1 | > 100 | > 100 | > 100 | > 100 | > 100 | > 100 | – | > 100 | > 100 | – | – | – | – | – | –
10 | Cc1ccc(C)c2sc3cc(=O)ccc-3nc12 | > 100 | > 100 | – | > 100 | > 100 | – | 48.1 | > 100 | > 100 | – | – | – | – | – | –
11 | O=C(NNc1ccc([N+](=O)[O-])cc1)C1OC(CO)C(O)C1O (stereo not given) | > 100 | > 100 | > 100 | > 100 | > 100 | > 100 | > 100 | > 100 | > 100 | – | – | – | – | – | –
12 | CC1=CC(=O)c2[nH]c3ccccc3c2C1=O | 8.28 | 8.58 | 14.7 | 22.7 | > 25 | – | 7.58 | 7.61 | 13.8 | 4.36 | 4.57 | 6.54 | 21.1 | 4.2 | 5.37
13 | Clc1ccc(CCN2CCOCC2)c(Cl)c1 | 83.3 | > 100 | > 100 | – | > 100 | – | > 100 | > 100 | > 100 | – | – | – | – | – | –
14 | Clc1cccc(C2SCc3nc4ccccc4n32)c1Cl (stereo not given) | 18.6 | 28.5 | 90.6 | – | 34.9 | – | 27 | 36.5 | 32.2 | – | – | – | – | – | –
15 | O=C1C=Cc2noc3cccc1c23 | 25.8 | 26.4 | – | 35.1 | 32.1 | 9.51 | 4.82 | 10.8 | 21.2 | – | – | – | – | – | –
16 | Cc1nc(Nc2ccc([N+](=O)[O-])cc2)sc1C(=O)/C=C/c1ccc(N(C)C)cc1 | > 100 | > 100 | > 100 | – | > 100 | > 100 | – | > 100 | > 100 | – | – | – | – | – | –
17 | N#CC(/C(=N\NC(N)=S)C(=O)NC1C2CC3CC(C2)CC1C3)c1ccc(Cl)cc1 (stereo not given) | > 100 | > 100 | > 100 | > 100 | > 100 | > 100 | > 100 | > 100 | > 100 | – | – | – | – | – | –
18 | COc1cc(C(N)=O)c(OC)c(OC)c1OC | > 100 | – | > 100 | > 100 | > 100 | > 100 | > 100 | > 100 | > 100 | – | – | – | – | – | –
19 | CCCCCCCCSC(SCCCCCCCC)=C1C(=O)N(c2ccccc2)N=C1C | > 100 | 93.1 | 61.9 | > 100 | > 100 | 36.2 | – | > 100 | > 100 | – | – | – | – | – | –
